Measurements published in publication PMC4686662 (Nature Communications, 2015).
pEC50, pIC50: −log10 of the molar value. Converted amounts (≈) assume the structure as drawn. Where two headings read alike, the source gives them in different places.

What was measured:
S. aureus = assay: MIC, broth microdilution, S. aureus strains; format: cell-based; conditions: Staphylococcus aureus
Protocol: (§1) Antibacterial minimum inhibitory concentrations (MICs) were determined from two independent experiments using broth microdilution methods according to Clinical and Laboratory Standards Institute guidelines. […] Bacterial strains used were from GSK's culture collection.
(§2) The quinolone resistance-determining region (QRDR) or full-length of gyrA/B and parC/E were amplified by PCR from the resistant mutants and DNA sequenced using the following primer pairs (all 5′–3′ sequence): for S. aureus gyrA: […] and […]; gyrB […] and […]; parC […] and […], and parE […] and […], respectively. For S. pneumoniae gyrA: […] and […]; gyrB: […] and […]; parC: […] and […], and parE: […] and […], respectively. […] Mutations in etoposide-resistant transformants were confirmed by PCR and DNA analysis.

Haemophilus influenzae = assay: MIC, broth microdilution, H. influenzae strains; format: cell-based; design: unit not given here
Protocol: as §1

Human Top2α [1] = biological target: T1, Human Top2α (Homo sapiens, UniProt P11388); assay: Human Top2α relaxation inhibition assay; format: biochemical
Acinetobacter baumannii = assay: MIC, broth microdilution, A. baumannii strains; format: cell-based; design: unit not given here; conditions: A. baumannii ACM1015 adeABC adeIJK (footnote c)
Protocol: as §1

Klebsiella pneumoniae = assay: MIC, broth microdilution, K. pneumoniae strains; format: cell-based; design: unit not given here; conditions: Klebsiella pneumoniae 1161486 tolC
Protocol: as §1

S. aureus DNA gyrase [2] = biological target: T2, S. aureus DNA gyrase (Staphylococcus aureus, UniProt P0A0K8+P20831); assay: biochemical; format: biochemical; conditions: for Type of DNA breaks stabilized with S. aureus DNA gyrase: each compound 100 μM, supercoiled pBR322, full-length S. aureus gyrase
T2 construct: Full-length S. aureus GyrA and GyrB were expressed in E. coli and purified as described; made in house; host or cells: E. coli
Protocol: (§3) BlueJuice gel loading buffer (Invitrogen) was added. […] See Supplementary Fig. 15 for representative gels.

E. coli DNA gyrase [3] = biological target: T3, E. coli DNA gyrase (Escherichia coli, UniProt P0AES4+P0AES6); assay: E. coli DNA gyrase supercoiling inhibition assay; format: biochemical; design: E. coli full-length DNA gyrase subunits A and B (both N-terminally 6-His-tagged) produced in-house; 6-His (N); made in house
Protocol: (§4) In vitro topoisomerase activity assays were performed as described with minor modifications. […] For E. coli DNA gyrase supercoiling assays, 3.4 nM of wild-type E. coli DNA gyrase (Inspiralis) was incubated with 500 ng relaxed pBR322 plasmid DNA in a 30-μl reaction containing the same buffer mixture but without the potassium glutamate. For S. aureus topo IV decatenation assays, 4 nM of S. aureus topo IV was incubated with 200 ng kinetoplast DNA in buffer as described by the manufacturer (Inspiralis). In E. coli topo IV decatenation assay, 0.125 nM of E. coli topo IV was incubated with kDNA as described in the protocol (Inspiralis). Human Top2α relaxation assays were performed as reported using 2 nM of enzyme. […] Reactions were analysed by electrophoresis in 1% w/v agarose gels followed by ethidium bromide staining. IC50 values, defined as the amount of compound that causes half-maximal inhibition, were determined by quantifying the DNA products using densitometry (VisionWorks, UVP) and fitting the data by nonlinear regression with GraFit software (Erythacus). Compound IC50 values reported are the averages of two to three determinations.

E. coli Topo IV [4] = biological target: T4, E. coli Topo IV (Escherichia coli, UniProt P0AFI2+P20083); conditions: read-out: IC50, E. coli Topo IV decatanation; supplementary ref 3; cited from earlier work
T4 construct: purchased Inspiralis

E. coli DNA gyrase [5] = biological target: T3, E. coli DNA gyrase; conditions: concentrations showing similar intensities of DSB
Human Top2α [6] = biological target: T1, Human Top2α; assay: DNA cleavage assay with human Top2α
Protocol: as §3

E. coli = assay: MIC, broth microdilution, E. coli strains; format: cell-based, Escherichia coli
Protocol: as §1

S. aureus Topo IV [7] = biological target: T5, S. aureus Topo IV (Staphylococcus aureus, UniProt P0C1S7+P0C1U9); design: method as in earlier work; conditions: read-out: IC50, S. aureus Topo IV decatanation; supplementary ref 4; cited from earlier work
T5 construct: purchased Inspiralis

S. pneumoniae = assay: MIC, broth microdilution, S. pneumoniae strains; format: cell-based; conditions: Streptococcus pneumoniae
Protocol: as §1, §2

human Top2β = tested on: human Top2β; design: method as in PMID 26149691; conditions: cited from earlier work
E. coli Topo IV [8] = biological target: T4, E. coli Topo IV; assay: E. coli topo IV decatenation inhibition assay; format: biochemical
Protocol: as §4

S. aureus Topo IV [9] = biological target: T5, S. aureus Topo IV; assay: S. aureus topo IV decatenation inhibition assay; format: biochemical
Protocol: as §4

S. aureus DNA gyrase [10] = biological target: T2, S. aureus DNA gyrase; assay: S. aureus DNA gyrase supercoiling inhibition assay; format: biochemical
Protocol: as §4

[11] = S. aureus RN4220 (parent), read-out: MIC
[12] = S. aureus RN4220 GyrB ΔT403-K406, read-out: MIC
[13] = Escherichia coli, E. coli 7623, read-out: MIC
[14] = Escherichia coli, E. coli 7623 ΔtolC
[15] = S. pneumoniae 1629, read-out: MIC
[16] = S. pneumoniae 1629 GyrB ΔL407–S410, read-out: MIC

Structure (SMILES)	MIC (S. aureus; [11]) [mg/L]	MIC (S. aureus; S. aureus RN4220 GyrB D437A) [mg/L]	MIC (S. aureus; S. aureus RN4220 GyrB D437N) [mg/L]	MIC (S. aureus; S. aureus RN4220 GyrB D437V) [mg/L]	MIC (S. aureus; S. aureus RN4220 GyrB P456L) [mg/L]	MIC (S. aureus; [12]) [mg/L]	also measured
Cc1c2ccncc2c(C)c2c1[nH]c1ccccc12 [Ellipticine, ellipticine]	1 (≈ 4.06 µM)	1 (≈ 4.06 µM)	1 (≈ 4.06 µM)	1 (≈ 4.06 µM)	1 (≈ 4.06 µM)	1 (≈ 4.06 µM)	
C[C@@H]1CN2c3ccc([N+](=O)[O-])cc3CC3(C(=O)NC(=O)NC3=O)[C@H]2[C@H](C)O1 [QPT-1, quinoline pyrimidine trione-1]	0.5 (≈ 1.34 µM)	2 (≈ 5.34 µM)	4 (≈ 10.7 µM)				MIC (Haemophilus influenzae; Haemophilus influenzae H128): ≤ 0.125; MIC (Haemophilus influenzae; Haemophilus influenzae H128 acrB): ≤ 0.125; pIC50 (Human Top2α [1]): < 3.30; MIC (Acinetobacter baumannii): 0.125; MIC (Klebsiella pneumoniae): 0.125; pEC50 (S. aureus DNA gyrase [2]): 5.06; Type of DNA breaks stabilized with S. aureus DNA gyrase (S. aureus DNA gyrase [2]): DSB; pIC50 (E. coli DNA gyrase [3]): 6.19; pIC50 (E. coli Topo IV [4]): 4.52; DNA cleavage activity relative to the (+) enantiomer (more active) (E. coli DNA gyrase [5]): ~ 30 fold; Activity against human Top2α (Human Top2α [6]): does not have detectable activity; pEC50 (Human Top2α [6]): < 3.10; MIC (E. coli; Escherichia coli 7623 tolC): 0.063 mg/L (≈ 0.168 µM); MIC (E. coli; [13]): 8 mg/L (≈ 21.4 µM); MIC (E. coli; [14]): 0.063 mg/L (≈ 0.168 µM)
O=C1c2c(O)ccc(O)c2C(=O)c2c(NCCNCCO)ccc(NCCNCCO)c21 [Mitoxantrone, mitoxantrone]	32 (≈ 72 µM)	8 (≈ 18 µM)	32 (≈ 72 µM)	8 (≈ 18 µM)	4 (≈ 9 µM)	6 (≈ 13.5 µM)	
COc1cccc2c1C(=O)c1c(O)c3c(c(O)c1C2=O)C[C@@](O)(C(=O)CO)C[C@@H]3O[C@H]1C[C@H](N)[C@H](O)[C@H](C)O1 [Doxorubicin, doxorubicin]	8 (≈ 14.7 µM)	8 (≈ 14.7 µM)	8 (≈ 14.7 µM)	8 (≈ 14.7 µM)	4 (≈ 7.36 µM)	3 (≈ 5.52 µM)	
COc1cc([C@@H]2c3cc4c(cc3[C@@H](O[C@@H]3O[C@@H]5CO[C@@H](c6cccs6)O[C@H]5[C@H](O)[C@H]3O)[C@H]3COC(=O)[C@H]23)OCO4)cc(OC)c1O [Teniposide, teniposide]	16 (≈ 24.4 µM)	32 (≈ 48.7 µM)	32 (≈ 48.7 µM)	64 (≈ 97.5 µM)	32 (≈ 48.7 µM)	32 (≈ 48.7 µM)	
COc1cccc2c1C(=O)c1c(O)c3c(c(O)c1C2=O)C[C@@](O)(C(C)=O)C[C@@H]3O[C@H]1C[C@H](N)[C@H](O)[C@H](C)O1 [Daunorubicin, daunorubicin]	8 (≈ 15.2 µM)	8 (≈ 15.2 µM)	8 (≈ 15.2 µM)	8 (≈ 15.2 µM)	4 (≈ 7.58 µM)	1.5 (≈ 2.84 µM)	
COc1c(N2C[C@@H]3CCCN[C@@H]3C2)c(F)cc2c(=O)c(C(=O)O)cn(C3CC3)c12 [Moxifloxacin, moxifloxacin]	0.063 (≈ 0.157 µM)	0.063 (≈ 0.157 µM)	0.063 (≈ 0.157 µM)				pIC50 (S. aureus Topo IV [7]): 5.42; Type of DNA breaks stabilized with S. aureus DNA gyrase (S. aureus DNA gyrase [2]): DSB; MIC (E. coli; [13]): ≤ 0.016 mg/L; MIC (E. coli; [14]): ≤ 0.016 mg/L; MIC (S. pneumoniae; [15]): 0.031 mg/L (≈ 0.0772 µM); MIC (S. pneumoniae; S. pneumoniae 1629 GyrB R447C): 0.094 mg/L (≈ 0.234 µM); MIC (S. pneumoniae; [16]): 0.047 mg/L (≈ 0.117 µM)
COc1ccc2ncc(C#N)c(CCN3CCC(NCc4cc5c(cn4)OCS5)CC3)c2c1 [GSK299423]	0.016 (≈ 0.0347 µM)	0.125 (≈ 0.271 µM)	0.125 (≈ 0.271 µM)	0.125 (≈ 0.271 µM)	0.125 (≈ 0.271 µM)	0.016 (≈ 0.0347 µM)	
C[C@@H]1CN2c3c(cc4c(N5C(=O)OC[C@@H]5C)noc4c3F)CC3(C(=O)NC(=O)NC3=O)[C@H]2[C@H](C)O1 [AZD9014]							Activity against human Top2β (human Top2β): low activity
COc1cc(NS(C)(=O)=O)ccc1Nc1c2ccccc2nc2ccccc12 [Amsacrine, amsacrine]	> 128	32 (≈ 81.3 µM)	> 128	64 (≈ 163 µM)	32 (≈ 81.3 µM)	128 (≈ 325 µM)	
COc1cc([C@@H]2c3cc4c(cc3[C@@H](O[C@@H]3O[C@@H]5CO[C@@H](C)O[C@H]5[C@H](O)[C@H]3O)[C@H]3COC(=O)[C@H]23)OCO4)cc(OC)c1O [Etoposide, etoposide]	64 (≈ 109 µM)	256 (≈ 435 µM)	128 (≈ 217 µM)	256 (≈ 435 µM)	256 (≈ 435 µM)	256 (≈ 435 µM)	Plateau of fitted IC50 curve, % of maximal inhibition (E. coli Topo IV [8]; E. coli Topo IV decatenation): ~75%; pIC50 (E. coli Topo IV [8]; read-out: IC50, E. coli Topo IV decatanation): 3.97; pEC50 (S. aureus DNA gyrase [2]): 3.97; Type of DNA breaks stabilized with S. aureus DNA gyrase (S. aureus DNA gyrase [2]): both SSB and DSB; pIC50 (S. aureus Topo IV [9]): 3.61; Plateau of fitted IC50 curve, % of maximal inhibition (S. aureus Topo IV [9]): ~50%; pIC50 (E. coli DNA gyrase [3]): 3.87; Plateau of fitted IC50 curve, % of maximal inhibition (E. coli DNA gyrase [3]; E. coli DNA gyrase supercoiling): approx. 60%; MIC (E. coli; [13]): > 256 mg/L; MIC (E. coli; [14]): 0.75 mg/L (≈ 1.27 µM); MIC (S. pneumoniae; [15]): 2 mg/L (≈ 3.4 µM); MIC (S. pneumoniae; S. pneumoniae 1629 GyrB R447C): 16 mg/L (≈ 27.2 µM); MIC (S. pneumoniae; [16]): 16 mg/L (≈ 27.2 µM); pIC50 (S. aureus DNA gyrase [10]): 4.32; Plateau of fitted IC50 curve, % of maximal inhibition (S. aureus DNA gyrase [10]; S. aureus DNA gyrase supercoiling): ~75%
